What was measured:
J774.1a macrophage cells [1] = assay: Macrophage TNF-α production (Assay 2); format: cell-based; conditions: 10 μg/mL test compound, 100 ng/mL LPS, ELISA; further: key: a ‘+’ indicates a positive result for desired activity; a ‘−’ indicates a negative result for desired activity
Procedure: Assay 2) Macrophage TNF-α production. J774.1a macrophage cells were treated with 10 μg/mL of test compound dissolved in solvent (e.g. cyclodextran) for 40 minutes prior to the addition of 100 ng/mL LPS. Culture supernatants were collected after 2 hr and 5 hr for TNF-α determination by ELISA.

J774.1a macrophage cells [2] = assay: Macrophage TNF-α NO assay (Assay 3); format: cell-based; conditions: 10 μg/ml test compound, LPS, 24 hr, Griess reagent; further: key: a ‘+’ indicates a positive result for desired activity; a ‘−’ indicates a negative result for desired activity
Procedure: Assay 3) Macrophage TNF-α NO assay. J774.1a macrophage cells were treated with 10 μg/ml of test compound dissolved in solvent for 40 minutes prior to the addition of LPS. Culture supernatants were collected after 24 hr. for determination of NO concentration using the Griess reagent.

J774.1 macrophage cells = assay: TNFα production in J774.1 macrophages (Example 9); format: cell-based; conditions: 2 ng/mL LPS
Procedure: J774.1 macrophage cells were plated at 2×10^5 cells/well in 24 well plates. The next day the media was changed and Compound 100, Compound 103 or cyclodextrin carrier were added to the wells at the indicated concentrations for 30 min prior to stimulation of the cells with 2 ng/mL lipopolysaccharide (LPS). LPS activation of macrophages leads to production of TNF alpha which can be detected in the culture supernatant and quantified by ELISA. The results are depicted in a graph in FIG. 1.

Mast cells = assay: Stimulation of mast cells by FcεRI crosslinking (Assay 4); format: cell-based; conditions: anti-DNP IgE, DNP-HSA
Procedure: Assay 4) Stimulation of mast cells by FcåRI crosslinking. Mast cells were pre-loaded overnight in BMMC medium lacking IL-3 with 0.1 μg/ml anti-DNP IgE (SPE-7, Sigma, Oakville, Ont). For calcium flux measurements, cells were incubated with 2 μM fura 2-acetoxymethyl ester (Molecular Probes, Eugene, Oreg.) in Tyrode's buffer at 23° C. for 45 min. Cells were then washed and incubated in the presence of the test compound 30 min prior to stimulation with the indicated concentration of DNP-human serum albumin (DNP-HSA). Calcium influx was monitored by spectrofluorometry as described previously. For analysis of intracellular signaling, cells were pre-loaded with anti-DNP IgE as above, pre-treated with the test compound for 30 min at 37° C. and stimulated with 20 ng/ml DNP-HSA for 5 min. Total cell lysates were then prepared and analyzed for phospho-PKB, phospho-p38^MAPK, phospho-MAPK, Grb-2 (Cell Signalling, Mississauga, Ont) and SHIP^6 by immunoblot analysis.

[3] = system: Bone marrow derived mast cells; assay: Calcium influx in mast cells (Example 11); format: cell-based; conditions: anti IgE antibody, Fura-2
Description: The activation of mast cells by IgE receptor crosslinking leads to an influx of calcium into the cells, followed by degranulation and secretion of pro-inflammatory mediator. Bone marrow derived mast cells were loaded with the fluorescent calcium indicator dye Fura-2 prior to treatment for 1 hr with Compound 106 or PBS carrier. Cells were then stimulated or not with an anti IgE antibody to cross-link the IgE receptors. Calcium influx was then monitored by fluorimetry. The results are depicted in a graph in FIG. 3.

[4] = system: SHIP−/− bone marrow derived macrophages; assay: LPS stimulation of SHIP−/− bone marrow derived macrophages; format: cell-based, mice; conditions: SHIP−/− cells, 15 μM, 10 ng/mL LPS 2 h
Procedure: (§1) Bone marrow cells were aspirated from 4 to 8 week old C57B16×129Sv mixed background mice and SHIP and SHIP cells prepared as described previously. Bone marrow derived macrophages from SHIP^+/+ and SHIP^−/− mice were obtained and maintained in IMDM supplemented with 10% FCS, 150 μM MTG, 2% C127 cell conditioned medium as a source of macrophage colony stimulating factor (M-CSF) (macrophage medium)
LPS stimulation of macrophages. For the analysis of LPS-stimulated TNFα production, 2×10^5 cells were plated the night before in 24 well plates in macrophage medium. The next day, the medium was changed and AQX-016A or carrier was added to cells at the indicated concentrations for 30 min prior to the addition of 10 ng/mL LPS. Supernatants were collected for TNFα determination by ELISA (BD Biosciences, Mississauga, ON, Canada). For analysis of intracellular signaling, 2×10^6 cells were plated the night before in 6 cm tissue culture plates. The next day, the cells were cultured in macrophage medium without M-CSF for 1 hr at 37° C. and then pretreated with AQX-016A or carrier for 30 min prior to the addition of 10 ng/mL LPS for 15 min. Cells were washed with 4° C. […]
The target specificity and biological efficacy of AQX-016A were assessed by comparing AQX-016A's effects on PI3K-regulated processes in primary SHIP^+/+ vs SHIP^−/− macrophages and mast cells. […]

[5] = system: SHIP+/+ bone marrow derived macrophages; assay: LPS stimulation of SHIP+/+ bone marrow derived macrophages; format: cell-based, mice; conditions: SHIP+/+ cells, 15 μM, 10 ng/mL LPS 2 h
Procedure: as §1
LPS stimulation of macrophages. For the analysis of LPS-stimulated TNFα production, 2×10^5 cells were plated the night before in 24 well plates in macrophage medium. The next day, the medium was changed and AQX-016A or carrier was added to cells at the indicated concentrations for 30 min prior to the addition of 10 ng/mL LPS. Supernatants were collected for TNFα determination by ELISA (BD Biosciences, Mississauga, ON, Canada). For analysis of intracellular signaling, 2×10^6 cells were plated the night before in 6 cm tissue culture plates. The next day, the cells were cultured in macrophage medium without M-CSF for 1 hr at 37° C. and then pretreated with AQX-016A or carrier for 30 min prior to the addition of 10 ng/mL LPS for 15 min. Cells were washed with 4° C. PBS and resuspended in lysis buffer (50 mM Hepes, 2 mM EDTA, 1 mM NaVO4, 100 mM NaF, 50 mM NaPPi and 1% NP40) supplemented with Complete Protease Inhibitor Cocktail (Roche, Montreal, Canada). Lysates were rocked at 4° C. for 30 min and clarified by centrifuging 20 min at 12000×g. Lysates were then made 1× in Laemmli's buffer, boiled 2 min and loaded onto 7.5% SDS polyacrylamide […]. Immunoblot analysis for phospho PKB (Cell Signalling, Mississauga, Ont), SHIP and actin (Santa Cruz, Santa Cruz, Calif.) were carried out as described previously.
The target specificity and biological efficacy of AQX-016A were assessed by comparing AQX-016A's effects on PI3K-regulated processes in primary SHIP^+/+ vs SHIP^−/− macrophages and mast cells. […] LPS stimulation of macrophages is associated with a PIP3-dependent release of pro-inflammatory mediators such as TNFα. […]

ΔC2 SHIP = assay: SHIP enzyme assay with C2 domain deleted SHIP; format: biochemical; conditions: PI-3,4-P2 20 μM or Compound 100 3 μM, 30 μM IP4
Description: A His6 tagged SHIP ΔC2 domain deletion mutant (deleting residues 725 to 863) in the mammalian expression vector pME18S was generated by a standard PCR-based methodology. An N-terminal His6 C2 domain construct was also generated by PCR inserted into the pET28C bacterial expression vector using EcoRI and NdeI restriction sites.
The allosteric regulation of enzymes has remained under-appreciated primarily because allosteric effectors are not easy to find. The molecular mechanism by which Compound 100 activated SHIP was investigated, first by performing classical enzyme kinetic analysis of its phosphatase activity. Activity measurements were performed with substrate concentrations from 10-100 μM.
The SHIP protein contains a C2 domain located at the carboxyterminal end of its phosphatase domain. […] SHIP lacking its the C2 domain (ΔC2 SHIP) was prepared.

SHIP enzyme = assay: In vitro SHIP enzyme assay (Assay 1); format: biochemical; conditions: wild-type SHIP
Procedure: Assay 1) In vitro testing in a SHIP enzyme assay. Test compounds were dissolved in a suitable solvent (e.g. EtOH, DMSO and others) and diluted into aqueous buffer (20 mM Tris HCl, pH 7.5 and 10 mM MgCl2). SHIP enzyme assays were performed in 96-well microtitre plates with 10 ng of enzyme/well in a total volume of 25 μL of 20 mM Tris HCl, pH 7.5 and 10 mM MgCl2. SHIP enzyme was incubated with test extracts (provided in solvent) or vehicle for 15 min at 23° C. before the addition of 100 μM inositol-1,3,4,5-tetrakisphosphate (Echelon Biosciences Inc, Salt Lake City, Utah). After 20 min at 37° C. and the amount of inorganic phosphate released assessed by the addition of Malachite Green reagent and absorbance measurement at 650 nm.
For in vitro testing in the SHIP enzyme assay, AQX-016A and Compound 100 were dissolved in EtOH and diluted into aqueous buffer (20 mM Tris HCl, pH 7.5 and 10 mM MgCl2). The actual concentration of drug in solution was determined by optical density measurement at 280 nm (λmax for both compounds) after high speed centrifugation at 14 000×g for 30 min to remove precipitated drug. For testing on cells, compounds were formulated in the carrier cyclodextrin (Cyclodex Technologies, High Springs, Fla.) at 6 mM (2 mg/mL). For oral administration to animals, compounds were dissolved in 100% cremophore EL (Sigma-Aldrich Canada, Oakville, Ontario) at 150 mM (50 mg/mL) prior to dilution to 6 mM in phosphate buffer saline. However, while these compounds caged in cyclodextrin or formulated in cremophore EL micelles were very soluble in aqueous solution, they could not be used in the SHIP enzyme assays because of interference from both cyclodextrin and cremophore EL.
N-terminal His6 tagged SHIP enzyme was expressed in mammalian 293T cells by transient transfection with pME18S-His-SHIP plasmid and purified to >95% homogeneity by Ni-chelating bead chromatography (Qiagen, Mississauga, Ontario). Recombinant SHIP C2 domain (amino acid residues 725 to 863) was expressed in E. coli transformed with a pET28C expression vector constructed as described below. Recombinant protein purified from the cell lysates by Nichelating bead chromatography was >95% pure.
In vitro SHIP enzyme assay. SHIP enzyme assays were performed in 96-well microtitre plates with 10 ng of enzyme/well in a total volume of 25 μL of 20 mM Tris HCl, pH 7.5 and 10 Mm MgCl2. SHIP enzyme was incubated with test extracts (provided in DMSO) or vehicle for 15 min at 23° C. before the addition of 100 μM inositol-1,3,4,5-tetrakisphosphate (Echelon Biosciences Inc, Salt Lake City, Utah). After 20 min at 37° C. and the amount of inorganic phosphate released assessed by the addition of Malachite Green reagent and absorbance measurement at 650 nm. SHIP2 enzyme was purchased from Echelon Biosciences (Salt Lake City, Utah) and an equivalent amount of inositol phosphatase activity was used in the in vitro enzyme assay. Enzyme data are expressed as the mean of triplicates +/−SEM. Experiments were performed at least 3 times. (FIGS. 7A and 7B).

In the case of `Cc1cc(OC(=O)CN)cc2c1[C@]1(C)CCC3C(C)(C)CCC[C@]3(C)[C@H]1C2` (some centres unmarked) [Compound 103], the “Assay Number 2: Macrophage TNF-α production” value (J774.1a macrophage cells [1]) is reported as “+”, the “Assay Number 3: Macrophage NO” value (J774.1a macrophage cells [2]) is reported as “+” and the “inhibition of TNFα production” value (J774.1 macrophage cells) is reported as “Inhibits TNF Alpha Production Better than Compound 100”.

With `Cc1cc(OC(=O)C(N)CCCCN)cc2c1[C@]1(C)CCC3C(C)(C)CCC[C@]3(C)[C@H]1C2` (some centres unmarked) [Compound 106] the “Assay Number 4: Stimulation of mast cells by FcεRI crosslinking” value (Mast cells) was “+”, the “Assay Number 2: Macrophage TNF-α production” value (J774.1a macrophage cells [1]) was “+” and the “inhibition of calcium influx” value [3] was “Inhibits Calcium Influx in Mast Cells”. For the same molecule, the “Assay Number 3: Macrophage NO” value (J774.1a macrophage cells [2]) was “+”.

With `O=c1cc(N2CCOCC2)oc2c(-c3ccccc3)cccc12` [LY294002, reference compound] the “suppression of TNFα production” value [4] was “up to −40%” and the “suppression of TNFα production” value [5] was “up to −40%”.

`CCCCCCCCCCCCCCCC(=O)OC[C@H](COP(=O)(O)O[C@H]1[C@H](O)[C@@H](O)[C@H](OP(=O)(O)O)[C@@H](OP(=O)(O)O)[C@H]1O)OC(=O)CCCCCCCCCCCCCCC` [PI-3,4-P2, phosphatidylinositol-3,4-bisphosphate diC16, reference compound] was tested, and the “ΔC2 SHIP enzyme activity” value (ΔC2 SHIP) was “could not be enhanced” and the SHIP enzyme activity (SHIP enzyme) was “activated wild-type SHIP enzyme to a similar extent as Compound 100”.
